IC50 data for 17 molecules are collected here from patent US11739070B2, “C5A receptor modulators” (IDORSIA PHARMACEUTICALS LTD, priority 2018, dated 2023).

Structures are written as SMILES.

For the assay, the target named is T1, C5AR1 (Homo sapiens, UniProt P21730).
T1 construct: host or cells: CHO-K1
T1 sequence (P21730 1-350): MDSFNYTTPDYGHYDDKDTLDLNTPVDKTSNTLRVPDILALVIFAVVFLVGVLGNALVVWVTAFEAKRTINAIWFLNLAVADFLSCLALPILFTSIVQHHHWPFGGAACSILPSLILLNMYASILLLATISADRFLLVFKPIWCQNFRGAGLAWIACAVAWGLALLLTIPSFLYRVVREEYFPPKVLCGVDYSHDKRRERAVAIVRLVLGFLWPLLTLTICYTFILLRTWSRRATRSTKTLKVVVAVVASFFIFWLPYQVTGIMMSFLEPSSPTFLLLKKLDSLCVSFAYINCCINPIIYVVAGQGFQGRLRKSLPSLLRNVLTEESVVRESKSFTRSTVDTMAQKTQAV
The experiment in a line: hC5a DISCO IC50 assay (PathHunter beta-arrestin, antagonist mode). The assay is classed as cell-based. The settings on record: CHO-K1 C5AR1 beta-arrestin cell line; antagonist vs 1-10 nM C5a agonist; geometric mean values; read-out: C5aR IC50. A digest of the protocol:
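Antagonist added first, then 1-10 nM C5a agonist; cells incubated 1.5 h at 37 °C. Beta-arrestin signal developed with PathHunter detection reagent, 45 min at RT. IC50 in nmol/l from serial antagonist dilutions, reported as geometric mean of several measurements.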
As for `COc1cccc2c1n(Cc1ccccc1OC(C)C)c(=O)n2[C@@H]1CCN(c2c(C)cccc2F)C1` [Example 165, 1-[(R)-1-(2-Fluoro-6-methyl-phenyl)-pyrrolidin-3-yl]-3-(2-isopropoxy-benzyl)-4-methoxy-1,3-dihydro-benzoimidazol-2-one], the IC50 (usually the midpoint of a concentration-inhibition curve) came out at 6 nM.

Regarding `COc1cccc2c1n(Cc1ccccc1OC(F)(F)F)c(=O)n2[C@@H]1CCN(c2c(C)cccc2C)C1` [Example 22, 1-[(R)-1-(2,6-Dimethyl-phenyl)-pyrrolidin-3-yl]-4-methoxy-3-(2-trifluoromethoxy-benzyl)-1,3-dihydro-benzoimidazol-2-one], the IC50 amounted to 30 nM. As for `COc1cccc2c1n(Cc1ccccc1C1CC1)c(=O)n2C1CCN(c2c(C)cccc2F)CC1` [Example 223, 3-(2-Cyclopropyl-benzyl)-1-[1-(2-fluoro-6-methyl-phenyl)-piperidin-4-yl]-4-methoxy-1,3-dihydro-benzoimidazol-2-one], the figure is 130 nM; as for `N#Cc1cccc(F)c1N1CC[C@@H](n2c(=O)n(Cc3ccccc3C(F)(F)F)c3c(CO)cccc32)C1` [Example 102, 3-Fluoro-2-{(R)-3-[4-hydroxymethyl-2-oxo-3-(2-trifluoromethyl-benzyl)-2,3-dihydro-benzoimidazol-1-yl]-pyrrolidin-1-yl}-benzonitrile], 759 nM; as for `COc1cccc2c1n(Cc1ccccc1C(F)(F)F)c(=O)n2C1C2CC1CN(C(=O)OC(C)(C)C)C2` (centres unmarked) [Example 191, 6-[4-Methoxy-2-oxo-3-(2-trifluoromethyl-benzyl)-2,3-dihydro-benzoimidazol-1-yl]-3-aza-bicyclo[3.1.1]heptane-3-carboxylic acid tert-butyl ester], 114 nM.

Take `COc1cccc2c1n(Cc1ccccc1C(F)(F)F)c(=O)n2[C@@H]1CCN(c2c(F)cccc2C=O)C1` [Example 83, 3-Fluoro-2-{(R)-3-[4-methoxy-2-oxo-3-(2-trifluoromethyl-benzyl)-2,3-dihydro-benzoimidazol-1-yl]-pyrrolidin-1-yl}-benzaldehyde]: the IC50 amounted to 23 nM.

For the molecule `COc1cccc2c1n(Cc1ccccc1C(F)(F)F)c(=O)n2C1CCN(c2c(C)c(C3CC3)nn2C)CC1` [Example 25, 1-[1-(5-Cyclopropyl-2,4-dimethyl-2H-pyrazol-3-yl)-piperidin-4-yl]-4-methoxy-3-(2-trifluoromethyl-benzyl)-1,3-dihydro-benzoimidazol-2-one], the IC50 was found to be 185 nM. As for `COc1cccc2c1n(Cc1ccccc1C(F)(F)F)c(=O)n2[C@@H]1CCN(c2c(F)cccc2CN(C)C)C1` [Example 106, 1-[(R)-1-(2-Dimethylaminomethyl-6-fluoro-phenyl)-pyrrolidin-3-yl]-4-methoxy-3-(2-trifluoromethyl-benzyl)-1,3-dihydro-benzoimidazol-2-one], the figure is 227 nM. As for `COc1cccc2c1n(Cc1nnc(Cl)cc1OC(C)C)c(=O)n2[C@@H]1CCN(c2c(C)cccc2F)C1` [Example 172, 3-(6-Chloro-4-isopropoxy-pyridazin-3-ylmethyl)-1-[(R)-1-(2-fluoro-6-methyl-phenyl)-pyrrolidin-3-yl]-4-methoxy-1,3-dihydro-benzoimidazol-2-one], the IC50 is 275 nM. For `COc1cccc2c1n(Cc1ccccc1C(F)(F)F)c(=O)n2[C@@H]1CCN(C(=O)OC(C)(C)C)C1` [Example 6, (R)-3-[4-Methoxy-2-oxo-3-(2-trifluoromethyl-benzyl)-2,3-dihydro-benzoimidazol-1-yl]-pyrrolidine-1-carboxylic acid tert-butyl ester] the value was 66 nM.

Consider `COc1cccc2c1n(Cc1ccccc1C(F)(F)F)c(=O)n2C1CCN(c2ccccc2O)CC1` [Example 230, 1-[1-(2-Hydroxy-phenyl)-piperidin-4-yl]-4-methoxy-3-(2-trifluoromethyl-benzyl)-1,3-dihydro-benzoimidazol-2-one], for which the IC50 was 129 nM. Take `COc1cccc2c1n(Cc1ccccc1C(F)(F)F)c(=O)n2[C@@H]1CCN(c2c(Cl)cnnc2Cl)C1` [Example 158, 1-[(R)-1-(3,5-Dichloro-pyridazin-4-yl)-pyrrolidin-3-yl]-4-methoxy-3-(2-trifluoromethyl-benzyl)-1,3-dihydro-benzoimidazol-2-one]: the IC50 came out at 683 nM.

`COc1cccc2c1n(Cc1ccccc1C(F)(F)F)c(=O)n2[C@@H]1CCN(c2c(F)cccc2CN2CCOCC2)C1` [Example 115, 1-[(R)-1-(2-Fluoro-6-morpholin-4-ylmethyl-phenyl)-pyrrolidin-3-yl]-4-methoxy-3-(2-trifluoromethyl-benzyl)-1,3-dihydro-benzoimidazol-2-one]: the IC50 came to 21 nM. For `COc1cccc2c1n(Cc1ccccc1C(F)(F)F)c(=O)n2C1CCN(c2c(C)cccc2F)CC1(C)C` (centres unmarked) [Example 227, 1-[1-(2-Fluoro-6-methyl-phenyl)-3,3-dimethyl-piperidin-4-yl]-4-methoxy-3-(2-trifluoromethyl-benzyl)-1,3-dihydro-benzoimidazol-2-one] the value was 30 nM. With `CNCc1cccc(F)c1N1CC[C@@H](n2c(=O)n(Cc3ccccc3C(F)(F)F)c3c(OC)cccc32)C1` [Example 103, 1-[(R)-1-(2-Fluoro-6-methylaminomethyl-phenyl)-pyrrolidin-3-yl]-4-methoxy-3-(2-trifluoromethyl-benzyl)-1,3-dihydro-benzoimidazol-2-one], the IC50 stood at 669 nM. As for `COc1nccc(C)c1N1CC[C@@H](n2c(=O)n(Cc3ccccc3C(F)(F)F)c3c(OC)cccc32)C1` [Example 33, 4-Methoxy-1-[(R)-1-(2-methoxy-4-methyl-pyridin-3-yl)-pyrrolidin-3-yl]-3-(2-trifluoromethyl-benzyl)-1,3-dihydro-benzoimidazol-2-one], the IC50 stood at 8 nM. As for `Cc1cccc(F)c1N1CC[C@@H](n2c(=O)n(Cc3ccccc3C(F)(F)F)c3c(OCC(O)CO)nccc32)C1` (stereo partly drawn) [Example 128, 4-(2,3-Dihydroxy-propoxy)-1-[(R)-1-(2-fluoro-6-methyl-phenyl)-pyrrolidin-3-yl]-3-(2-trifluoromethyl-benzyl)-1,3-dihydro-imidazo[4,5-c]pyridin-2-one], the figure is 207 nM.
